Reference: US9642369B2 (dated 2017)

melting point | SMILES
34 to 36 °C | CCOP(=O)(CCC[N+](C)(C)CCCNS(=O)(=O)c1cccc2c(N(C)C)cccc12)OCC.[Br-]
122 to 124 °C | CN(C)CCCNS(=O)(=O)c1cccc2c(N(C)C)cccc12 (hydrate or solvate)
